Laboratory results from ChEMBL document CHEMBL1201862, “PubChem BioAssay data set” (2004).
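In this assay, cells in 96-well plates receive the compound at five concentrations for 48 hours. Endpoints are linearly interpolated between the surrounding concentrations. GI50 = concentration required for 50% inhibition of growth.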 Active and inactive are the calls of the source. Cut-off read from the data, not from the text of the source: active = GI50 up to about 1.1 µM and inactive = higher.

What was measured:
Test in all cases: NCI-60 cell line screen, 48 h
[1] = test system: M14
[2] = test system: OVCAR-3
[3] = test system: HT-29
[4] = test system: KM-20L2
[5] = test system: NCI-H23
[6] = test system: KM12
[7] = test system: XF498
[8] = test system: TK-10
[9] = test system: OVCAR-5
[10] = test system: SK-OV-3
[11] = test system: RXF 631
[12] = test system: SK-MEL-28
[13] = test system: SK-MEL-5
[14] = test system: DLD-1
[15] = test system: CCRF-CEM
[16] = test system: COLO 205
[17] = test system: UACC-257
[18] = test system: U-251
[19] = test system: RXF 393
[20] = test system: A549
[21] = test system: SW-620
[22] = test system: A498
[23] = test system: SNB-78
[24] = test system: HCC 2998
[25] = test system: DMS-114
[26] = test system: M19-MEL
[27] = test system: 786-0
[28] = test system: MOLT-4
[29] = test system: LXFL 529
[30] = test system: HL-60
[31] = test system: SF-539
[32] = test system: K562
[33] = test system: DMS-273
[34] = test system: UO-31
[35] = test system: ACHN
[36] = test system: RPMI-8226
[37] = test system: Malme-3M
[38] = test system: LOX IMVI
[39] = test system: SNB-75
[40] = test system: EKVX
[41] = test system: NCI-H460
[42] = test system: SK-MEL-2
[43] = test system: NCI-H522
[44] = test system: OVCAR-8
[45] = test system: HOP-92
[46] = test system: UACC-62
[47] = test system: HCT-116
[48] = test system: HOP-62
[49] = test system: IGROV-1
[50] = test system: SN12C
[51] = test system: CAKI-1
[52] = test system: SF-295
[53] = test system: SR
[54] = test system: HCT-15
[55] = test system: OVCAR-4
[56] = test system: SNB-19
[57] = test system: SF-268

`CSCCC(C(=O)O)N(CC1(O)OCC(O)C(O)C1O)N=O` (stereo unspecified) was tested, and the GI50 [1] was > 100 µM (inactive), the GI50 [2] was > 100 µM (inactive) and the GI50 [3] was > 100 µM (inactive). The GI50 [4] was > 100 µM (inactive), the GI50 [5] was > 100 µM (inactive) and the GI50 [6] was > 100 µM (inactive). The GI50 [7] was > 100 µM (inactive), the GI50 [8] was > 100 µM (inactive) and the GI50 [9] was > 100 µM (inactive). For the same molecule, the GI50 [10] was > 100 µM (inactive), the GI50 [11] was > 100 µM (inactive) and the GI50 [12] was > 100 µM (inactive). The GI50 [13] was > 100 µM (inactive), the GI50 [14] was > 100 µM (inactive) and the GI50 [15] was > 100 µM (inactive). For the same molecule, the GI50 [16] was > 100 µM (inactive), the GI50 [17] was > 100 µM (inactive) and the GI50 [18] was > 100 µM (inactive). The GI50 [19] was > 100 µM (inactive), the GI50 [20] was > 100 µM (inactive) and the GI50 [21] was > 100 µM (inactive). For the same molecule, the GI50 [22] was > 100 µM (inactive), the GI50 [23] was > 100 µM (inactive) and the GI50 [24] was > 100 µM (inactive). For the same molecule, the GI50 [25] was > 100 µM (inactive), the GI50 [26] was > 100 µM (inactive) and the GI50 [27] was > 100 µM (inactive). The GI50 [28] was > 100 µM (inactive), the GI50 [29] was > 100 µM (inactive) and the GI50 [30] was > 100 µM (inactive). The GI50 [31] was > 100 µM (inactive), the GI50 [32] was > 100 µM (inactive) and the GI50 [33] was > 100 µM (inactive). The GI50 [34] was > 100 µM (inactive), the GI50 [35] was > 100 µM (inactive) and the GI50 [36] was > 100 µM (inactive). For the same molecule, the GI50 [37] was > 100 µM (inactive), the GI50 [38] was > 100 µM (inactive) and the GI50 [39] was > 100 µM (inactive). For the same molecule, the GI50 [40] was > 100 µM (inactive), the GI50 [41] was > 100 µM (inactive) and the GI50 [42] was > 100 µM (inactive). For the same molecule, the GI50 [43] was > 100 µM (inactive), the GI50 [44] was > 100 µM (inactive) and the GI50 [45] was > 100 µM (inactive). The GI50 [46] was > 100 µM (inactive), the GI50 [47] was > 100 µM (inactive) and the GI50 [48] was > 100 µM (inactive). The GI50 [49] was > 100 µM (inactive).

With `OCCN(CCO)c1cccc(N(CCO)CCO)n1` the GI50 [1] was > 100 µM (inactive), the GI50 [2] was > 100 µM (inactive) and the GI50 [50] was > 10 µM (inactive). For the same molecule, the GI50 [4] was > 100 µM (inactive), the GI50 [6] was > 100 µM (inactive) and the GI50 [7] was 27.7 µM (inactive). For the same molecule, the GI50 [8] was > 100 µM (inactive), the GI50 [10] was > 100 µM (inactive) and the GI50 [11] was > 100 µM (inactive). The GI50 [12] was > 100 µM (inactive), the GI50 [13] was > 100 µM (inactive) and the GI50 [14] was > 100 µM (inactive). The GI50 [51] was > 100 µM (inactive), the GI50 [15] was > 100 µM (inactive) and the GI50 [52] was > 100 µM (inactive). The GI50 [16] was > 100 µM (inactive), the GI50 [53] was > 100 µM (inactive) and the GI50 [17] was > 100 µM (inactive). For the same molecule, the GI50 [18] was > 100 µM (inactive), the GI50 [19] was > 100 µM (inactive) and the GI50 [20] was > 100 µM (inactive). For the same molecule, the GI50 [21] was > 100 µM (inactive), the GI50 [54] was greater than 100 µM and the GI50 [22] was > 100 µM (inactive). The GI50 [23] was > 100 µM (inactive), the GI50 [24] was > 10 µM (inactive) and the GI50 [25] was > 100 µM (inactive). The GI50 [26] was > 100 µM (inactive), the GI50 [27] was > 100 µM (inactive) and the GI50 [28] was > 100 µM (inactive). The GI50 [29] was > 100 µM (inactive), the GI50 [55] was > 100 µM (inactive) and the GI50 [56] was > 100 µM (inactive). The GI50 [30] was > 100 µM (inactive), the GI50 [32] was > 100 µM (inactive) and the GI50 [33] was > 100 µM (inactive). For the same molecule, the GI50 [34] was > 100 µM (inactive), the GI50 [35] was > 100 µM (inactive) and the GI50 [36] was > 100 µM (inactive). For the same molecule, the GI50 [38] was > 100 µM (inactive), the GI50 [39] was > 100 µM (inactive) and the GI50 [40] was > 100 µM (inactive). The GI50 [41] was > 100 µM (inactive), the GI50 [42] was > 100 µM (inactive) and the GI50 [43] was > 100 µM (inactive). For the same molecule, the GI50 [44] was > 100 µM (inactive), the GI50 [45] was > 100 µM (inactive) and the GI50 [46] was 58.2 µM (inactive). For the same molecule, the GI50 [47] was > 100 µM (inactive), the GI50 [48] was > 100 µM (inactive) and the GI50 [57] was > 100 µM (inactive).

`Cn1ncc2cc3c(Nc4ccc(Cl)cc4)cccc3nc21` was tested, and the GI50 [1] was 18.8 µM (inactive), the GI50 [2] was 12.7 µM (inactive) and the GI50 [50] was 18.1 µM (inactive). For the same molecule, the GI50 [4] was 14.7 µM (inactive), the GI50 [5] was 22.2 µM (inactive) and the GI50 [6] was 17.3 µM (inactive). The GI50 [7] was 8.11 µM (inactive), the GI50 [8] was 26.9 µM (inactive) and the GI50 [9] was > 10 µM (inactive). The GI50 [10] was 61.2 µM (inactive), the GI50 [11] was 17.7 µM (inactive) and the GI50 [12] was 15.1 µM (inactive). For the same molecule, the GI50 [13] was 13.1 µM (inactive), the GI50 [14] was 20.3 µM (inactive) and the GI50 [51] was 15.5 µM (inactive). For the same molecule, the GI50 [15] was 15.1 µM (inactive), the GI50 [52] was 14.2 µM (inactive) and the GI50 [16] was 13.7 µM (inactive). For the same molecule, the GI50 [17] was 18.9 µM (inactive), the GI50 [19] was 6.87 µM (inactive) and the GI50 [20] was 18.2 µM (inactive). The GI50 [21] was 13.9 µM (inactive), the GI50 [54] was 14.1 µM and the GI50 [23] was 34 µM (inactive). For the same molecule, the GI50 [24] was 21 µM (inactive), the GI50 [25] was 12.9 µM (inactive) and the GI50 [26] was 22.1 µM (inactive). The GI50 [27] was 21.6 µM (inactive), the GI50 [28] was 6.82 µM (inactive) and the GI50 [29] was 15.6 µM (inactive). The GI50 [55] was 11.8 µM (inactive), the GI50 [56] was 37.8 µM (inactive) and the GI50 [30] was 11 µM (inactive). For the same molecule, the GI50 [32] was 20 µM (inactive), the GI50 [33] was > 10 µM (inactive) and the GI50 [34] was 7.4 µM (inactive). For the same molecule, the GI50 [35] was 15 µM (inactive), the GI50 [36] was 10.9 µM (inactive) and the GI50 [37] was 23 µM (inactive). For the same molecule, the GI50 [38] was 14.9 µM (inactive), the GI50 [39] was 19.4 µM (inactive) and the GI50 [40] was 18.1 µM (inactive). The GI50 [41] was 8.61 µM (inactive), the GI50 [42] was 22.6 µM (inactive) and the GI50 [43] was 1.75 µM (inactive). The GI50 [44] was 19 µM (inactive), the GI50 [45] was 6.67 µM (inactive) and the GI50 [46] was 15.1 µM (inactive). For the same molecule, the GI50 [48] was 15 µM (inactive), the GI50 [49] was 15.3 µM (inactive) and the GI50 [57] was 15.8 µM (inactive).
